Molecules are shown by their SMILES.

For this experiment, the target named is T1, APOL1 (Homo sapiens, UniProt O14791).
T1 sequence (O14791 1-398 S342G/I384M): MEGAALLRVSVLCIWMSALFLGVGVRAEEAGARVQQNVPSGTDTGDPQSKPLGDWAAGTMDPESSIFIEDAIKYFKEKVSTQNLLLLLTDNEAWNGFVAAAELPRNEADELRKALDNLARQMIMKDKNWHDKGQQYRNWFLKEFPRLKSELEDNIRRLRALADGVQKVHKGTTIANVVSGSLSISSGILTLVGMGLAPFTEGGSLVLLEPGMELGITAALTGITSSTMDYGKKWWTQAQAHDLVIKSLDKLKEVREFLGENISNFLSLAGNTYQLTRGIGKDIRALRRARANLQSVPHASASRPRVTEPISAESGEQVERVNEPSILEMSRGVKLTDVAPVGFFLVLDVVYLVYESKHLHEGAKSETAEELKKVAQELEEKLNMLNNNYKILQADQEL
In words: MultiTox-Fluor Multiplex Cytotoxicity Assay in tet-inducible APOL1 T-REx-HEK293 cells (cell rescue, ratio of dead to live cells). Particulars: tet-inducible transgenic APOL1 T-REx-HEK293 cell lines, 50 ng/mL tet, 24 hours; read-out: IP50 (i.e., IC50 for cell proliferation). In kind it is cell-based. Put shortly: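 T-REx-HEK293 cells with tet-inducible APOL1 were treated with compound (10 μM top, 10-point 3-fold dilution, duplicate) plus 50 ng/mL tetracycline for 24 h at 37° C, in DMEM with 2% tet-free FBS. MultiTox-Fluor protease signals gave a dead/live ratio, normalized to no tet (100% viability) and tet alone (0%).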
For the compound `C[C@H]1C[C@@]2(CCN1Cc1cnn(CCS(C)(=O)=O)c1)OCC(O)c1cc(Cl)sc12` (stereo partly drawn) [Compound 767, (2′S,7R)-2-chloro-2′-methyl-1′-[[1-(2-methylsulfonylethyl)pyrazol-4-yl]methyl]spiro[4,5-dihydrothieno[2,3-c]pyran-7,4′-piperidine]-4-ol], the IC50 is less than 100 nM. The figure for `Cc1ncccc1CN1CC[C@]2(C[C@@H]1C)OC[C@H](O)c1cc(Cl)sc12` [Compound 770] is 100 to 500 nM. As for `C[C@H]1C[C@@]2(CCN1Cc1cccc(OCC(N)=O)c1)OC[C@H](O)c1cc(Cl)sc12` [Compound 771], the IC50 was in the range of 100 to 500 nM.

As to `COc1ccc(CN2CC[C@]3(C[C@@H]2C)OC[C@H](O)c2cc(Cl)sc23)cc1OCC(N)=O` [Compound 772], the IC50 is less than 100 nM. The figure for `COc1cc(OCC(N)=O)ccc1CN1CC[C@]2(C[C@@H]1C)OC[C@H](O)c1cc(Cl)sc12` [Compound 773] is less than 100 nM. Regarding `C[C@H]1C[C@@]2(CCN1Cc1cc(F)cc(F)c1O)OC[C@H](O)c1cc(Cl)sc12` [Compound 774], the IC50 was 500 to 1000 nM. The figure for `C[C@H]1C[C@@]2(CCN1Cc1ccc(OCCO)cc1)OC[C@H](O)c1cc(Cl)sc12` [Compound 775] is less than 100 nM. The result for `COc1cc(CN2CC[C@]3(C[C@@H]2C)OC[C@H](O)c2cc(Cl)sc23)ccc1OCC(N)=O` [Compound 776] reads less than 100 nM; that for `C[C@H]1C[C@@]2(CCN1Cc1ccc(N3CCCC3=O)cc1)OC[C@H](O)c1cc(Cl)sc12` [Compound 777], less than 100 nM. Regarding `C[C@H]1C[C@@]2(CCN1Cc1cnccn1)OC[C@H](O)c1cc(Cl)sc12` [Compound 778], the IC50 was 500 to 1000 nM. As for `C[C@H]1C[C@@]2(CCN1CCC1CCOCC1)OC[C@H](O)c1cc(Cl)sc12` [Compound 779], the IC50 fell in the range of 500 to 1000 nM. The figure for `C[C@H]1C[C@@]2(CCN1Cc1ccc(NS(C)(=O)=O)cc1)OC[C@H](O)c1cc(Cl)sc12` [Compound 780] is less than 100 nM. Turning to `Cc1cc(CN2CC[C@]3(C[C@@H]2C)OC[C@H](O)c2cc(Cl)sc23)nn1C` [Compound 781], the IC50 was 500 to 1000 nM.

`COc1cccc(CN2CC[C@]3(C[C@@H]2C)OC[C@H](O)c2cc(Cl)sc23)n1` [Compound 782]: the IC50 lay in the range of 500 to 1000 nM. On to `COc1cnc(CN2CC[C@]3(C[C@@H]2C)OC[C@H](O)c2cc(Cl)sc23)cn1` [Compound 783], for which the IC50 lay within 100 to 500 nM. The figure for `C[C@H]1C[C@@]2(CCN1Cc1cncc(F)c1)OC[C@H](O)c1cc(Cl)sc12` [Compound 784] is 100 to 500 nM; for `CC(O)CCN1CC[C@]2(C[C@@H]1C)OC[C@H](O)c1cc(Cl)sc12` (stereo partly drawn) [Compound 785] it is 500 to 1000 nM. `C[C@H]1C[C@@]2(CCN1Cc1cn3c(n1)CCC3)OC[C@H](O)c1cc(Cl)sc12` [Compound 786]: the IC50 was in the range of 500 to 1000 nM. The figure for `C[C@H]1C[C@@]2(CCN1Cc1ccnn1C)OC[C@H](O)c1cc(Cl)sc12` [Compound 787] is 500 to 1000 nM; for `Cc1ccc(CN2CC[C@]3(C[C@@H]2C)OC[C@H](O)c2cc(Cl)sc23)c(C)n1` [Compound 788] it is 100 to 500 nM.

For the compound `C[C@H]1C[C@@]2(CCN1CC1CCOCC1)OC[C@H](O)c1cc(Cl)sc12` [Compound 789], the IC50 lay within 500 to 1000 nM. The figure for `C[C@H]1C[C@@]2(CCN1Cc1cn(-c3ncccn3)cn1)OC[C@H](O)c1cc(Cl)sc12` [Compound 790] is 100 to 500 nM; for `C[C@H]1C[C@@]2(CCN1Cc1ccc(O)nc1)OC[C@H](O)c1cc(Cl)sc12` [Compound 791] it is less than 100 nM. As for `C[C@H]1C[C@@]2(CCN1Cc1ccc(F)cn1)OC[C@H](O)c1cc(Cl)sc12` [Compound 792], the IC50 lay in the range of 100 to 500 nM. Regarding `Cc1ncc(CN2CC[C@]3(C[C@@H]2C)OC[C@H](O)c2cc(Cl)sc23)cn1` [Compound 793], the IC50 was 100 to 500 nM.

On to `C[C@H]1C[C@@]2(CCN1CC1CCN(S(C)(=O)=O)CC1)OC[C@H](O)c1cc(Cl)sc12` [Compound 796], for which the IC50 fell in the range of 100 to 500 nM. In the case of `COCCc1ncc(CN2CC[C@]3(C[C@@H]2C)OC[C@H](O)c2cc(Cl)sc23)cn1` [Compound 797], the IC50 was 100 to 500 nM. The result for `C[C@H]1C[C@@]2(CCN1Cc1ccc(OCC(=O)N3CCOCC3)cc1)OC[C@H](O)c1cc(Cl)sc12` [Compound 798] reads less than 100 nM; that for `CC(=O)Nc1ccc(CN2CC[C@]3(C[C@@H]2C)OC[C@H](O)c2cc(Cl)sc23)cc1` [Compound 799], less than 100 nM. The result for `C[C@H]1C[C@@]2(CCN1Cc1cnc(N3CCOCC3)nc1)OC[C@H](O)c1cc(Cl)sc12` [Compound 800] reads less than 100 nM; that for `C[C@H]1C[C@@]2(CCN1Cc1cccc(F)c1O)OC[C@H](O)c1cc(Cl)sc12` [Compound 801], 500 to 1000 nM. Consider `C[C@H]1C[C@@]2(CCN1Cc1ccc(S(C)(=O)=O)cc1)OC[C@H](O)c1cc(Cl)sc12` [Compound 802], for which the IC50 lay within 100 to 500 nM. As for `C[C@H]1C[C@@]2(CCN1Cc1cccc(OCCO)c1)OC[C@H](O)c1cc(Cl)sc12` [Compound 803], the IC50 was in the range of 100 to 500 nM. Consider `COc1ccc(CN2CC[C@]3(C[C@@H]2C)OC[C@H](O)c2cc(Cl)sc23)cn1` [Compound 804], for which the IC50 is less than 100 nM. With `COc1nccc(CN2CC[C@]3(C[C@@H]2C)OC[C@H](O)c2cc(Cl)sc23)n1` [Compound 805], the IC50 lay in the range of 500 to 1000 nM. The result for `COc1cncc(CN2CC[C@]3(C[C@@H]2C)OC[C@H](O)c2cc(Cl)sc23)c1` [Compound 806] reads 100 to 500 nM; that for `COc1ncc(CN2CC[C@]3(C[C@@H]2C)OC[C@H](O)c2cc(Cl)sc23)cn1` [Compound 807], 100 to 500 nM. The result for `Cc1cccc(CN2CC[C@]3(C[C@@H]2C)OC[C@H](O)c2cc(Cl)sc23)n1` [Compound 808] reads 500 to 1000 nM; that for `Cc1cncc(CN2CC[C@]3(C[C@@H]2C)OC[C@H](O)c2cc(Cl)sc23)c1` [Compound 809], 100 to 500 nM; that for `C[C@H]1C[C@@]2(CCN1Cc1ccc(C(=O)N(C)C)cc1)OC[C@H](O)c1cc(Cl)sc12` [Compound 810], 100 to 500 nM. As to `C[C@H]1C[C@@]2(CCN1Cc1ccccn1)OC[C@H](O)c1cc(Cl)sc12` [Compound 811], the IC50 was in the range of 500 to 1000 nM. As to `CNC(=O)c1cccc(CN2CC[C@]3(C[C@@H]2C)OC[C@H](O)c2cc(Cl)sc23)c1` [Compound 812], the IC50 lay within 100 to 500 nM.

Take `C[C@H]1C[C@@]2(CCN1Cc1cn(C)nn1)OC[C@H](O)c1cc(Cl)sc12` [Compound 813]: the IC50 lay within 100 to 500 nM.

For the compound `C[C@H]1C[C@@]2(CCN1CCCn1cccn1)OC[C@H](O)c1cc(Cl)sc12` [Compound 815], the IC50 is 500 to 1000 nM. Regarding `Cc1cncc(N2CCC(CN3CC[C@]4(C[C@@H]3C)OC[C@H](O)c3cc(Cl)sc34)CC2)n1` [Compound 816], the IC50 was in the range of 500 to 1000 nM.

In the case of `C[C@H]1C[C@@]2(CCN1Cc1cn[nH]c1)OCC(O)c1cc(Cl)sc12` (stereo partly drawn) [Compound 817], the IC50 is less than 100 nM.

Turning to `C[C@H]1C[C@@]2(CCN1Cc1cn(CCS(C)(=O)=O)nn1)OCC(=O)c1cc(Cl)sc12` [Compound 822, (2S,4R)-2′-chloro-2-methyl-1-[[1-(2-methylsulfonylethyl)triazol-4-yl]methyl]spiro[piperidine-4,7′-thieno[2,3-c]pyran]-4′-one], the IC50 fell in the range of 100 to 500 nM.

Regarding `C[C@H]1C[C@@]2(CCN1Cc1cn(CCS(C)(=O)=O)nn1)OCC(O)c1cc(Cl)sc12` (stereo partly drawn) [Compound 823], the IC50 was 100 to 500 nM.

Take `C[C@H]1C[C@@]2(CCN1Cc1ccc(NS(=O)(=O)C3CC3)nc1)OCC(O)c1cc(Cl)sc12` (stereo partly drawn) [Compound 824]: the IC50 was less than 100 nM. The result for `C[C@H]1C[C@@]2(CCN1Cc1cnn(CCS(C)(=O)=O)c1)OC[C@](O)(C(F)F)c1cc(Cl)sc12` [Compound 827, (2′S,4S,7R)-2-chloro-4-(difluoromethyl)-2′-methyl-1′-[[1-(2-methylsulfonylethyl)pyrazol-4-yl]methyl]spiro[5H-thieno[2,3-c]pyran-7,4′-piperidine]-4-ol] reads less than 100 nM; that for `C[C@H]1C[C@@]2(CCN1Cc1cn[nH]c1)OC[C@](O)(C(F)F)c1cc(Cl)sc12` [Compound 828, (2′S,4S,7R)-2-chloro-4-(difluoromethyl)-2′-methyl-1′-(1H-pyrazol-4-ylmethyl)spiro[5H-thieno[2,3-c]pyran-7,4′-piperidine]-4-ol], less than 100 nM.

Regarding `C[C@H]1C[C@@]2(CCN1Cc1cnc(NC(C)(C)CO)nc1)OC[C@](O)(C(F)F)c1cc(Cl)sc12` [Compound 830], the IC50 is less than 100 nM. For `C[C@H]1C[C@@]2(CCN1Cc1cnn(C)c1)OC[C@](O)(C(F)F)c1cc(Cl)sc12` [Compound 831], the IC50 is less than 100 nM. For `C[C@H]1C[C@@]2(CCN1Cc1cn(CCS(C)(=O)=O)nn1)OC[C@](O)(C(F)F)c1cc(Cl)sc12` [Compound 832], the IC50 was less than 100 nM. As for `C[C@H]1C[C@@]2(CCN1Cc1cnn(CC(C)(CO)CO)c1)OC[C@](O)(C(F)F)c1cc(Cl)sc12` [Compound 833], the IC50 is less than 100 nM.

For the compound `C[C@H]1C[C@@]2(CCN1Cc1cnn(CCS(C)(=O)=O)c1)OC[C@@](O)(C(F)F)c1cc(Cl)sc12` [Compound 834], the IC50 is less than 100 nM. The figure for `CO[C@]1(C(F)F)CO[C@@]2(CCN(Cc3cnn(CCS(C)(=O)=O)c3)[C@@H](C)C2)c2sc(Cl)cc21` [Compound 835] is less than 100 nM.

For the origin of these results see US20250171459A1, “2-METHYL-4',5'-DIHYDROSPIRO[PIPERIDINE-4,7'-THIENO[2,3-C]PYRAN] DERIVATIVES AS INHIBITORS OF APOL1 AND METHODS OF USING SAME” (Vertex Pharmaceuticals Incorporated, priority 2022, published 2025).
